Results taken from ChEMBL document CHEMBL1134057, “Synthesis of polyamine derivatives having non-hypotensive Ca2 +-permeable AMPA receptor antagonist activity” (Bioorg Med Chem Lett, 2001).

Tests used:
[1] = target: Glutamate receptor ionotropic, AMPA (Rattus norvegicus, UniProt P19490+P19491+P19492+P19493)
Rattus norvegicus = species: Rattus norvegicus; details: dose 3 mg/kg; route intravenous
Description: Change in systolic blood pressure(SBP) after intravenous administration of 3 mg/kg in rats compared with SBP before dosing

[2] = target: Glutamate receptor ionotropic, AMPA (Rattus norvegicus) (UniProt P19491+P19492+P19493+P19490); assay: Antagonist activity for [Ca2+] permeable Ionotropic glutamate receptor AMPA expressed in Xenopus oocytes by injection of rat brain mRNA at 1 uM; assay type: functional, cell-based; details: Oocyte

For `O=C(Cc1cccc2ccccc12)N1CCC(CNCCCCNCC2CCCN2)CC1` (stereo not given), the IC50 [1] was 730 nM and the “Delta SBP” value (Rattus norvegicus) was 0 mmHg.

In the case of `O=C(Cc1cccc2ccccc12)N1CCC(CNCCCCNCCCn2ccnc2)CC1`, the IC50 [1] is reported as 260 nM and the “Delta SBP” value (Rattus norvegicus) is reported as -25 mmHg.

For `NCCNCCCCNCC1CCN(C(=O)Cc2cccc3ccccc23)CC1`, the IC50 [1] was 330 nM and the “Delta SBP” value (Rattus norvegicus) was -50 mmHg.

In the case of `CN1CCCC1CNCCCCNCC1CCN(C(=O)Cc2cccc3ccccc23)CC1` (stereo not given), the inhibition [2] is reported as 41% and the “Delta SBP” value (Rattus norvegicus) is reported as 13 mmHg.

With `O=C(Cc1cccc2ccccc12)N1CCC(CNCCCCNCC2CCNCC2)CC1` the IC50 [1] was 1300 nM and the “Delta SBP” value (Rattus norvegicus) was -120 mmHg.

With `O=C(Cc1cccc2ccccc12)NCCCCCC(=O)N1CCC(CNCCCCNCC2CCNCC2)CC1` the IC50 [1] was 420 nM and the “Delta SBP” value (Rattus norvegicus) was -40 mmHg.

In the case of `CN1CCC(CNCCCCNCC2CCN(C(=O)Cc3cccc4ccccc34)CC2)CC1`, the IC50 [1] is reported as 570 nM and the “Delta SBP” value (Rattus norvegicus) is reported as -50 mmHg.

In the case of `O=C(Cc1cccc2ccccc12)N1CCC(CNCCCCNCCN2CCOCC2)CC1`, the inhibition [2] is reported as 18% and the “Delta SBP” value (Rattus norvegicus) is reported as 0 mmHg.

`O=C(Cc1cccc2ccccc12)N1CCC(CNCCCCNCCN2CCCCC2)CC1` was tested, and the IC50 [1] was 190 nM and the “Delta SBP” value (Rattus norvegicus) was 5 mmHg.

In the case of `NC(=O)C[C@@H](NC(=O)Cc1cccc2ccccc12)C(=O)N1CCC(CNCCCCNCC2CCNCC2)CC1`, the IC50 [1] is reported as 270 nM and the “Delta SBP” value (Rattus norvegicus) is reported as -75 mmHg.

`CN1CCCC1CCNCCCCNCC1CCN(C(=O)Cc2cccc3ccccc23)CC1` (stereo not given) was tested, and the IC50 [1] was 780 nM and the “Delta SBP” value (Rattus norvegicus) was -55 mmHg.

With `c1ccc2c(CCN3CCC(CNCCCCNCC4CCNCC4)CC3)cccc2c1` the inhibition [2] was 28%.

For `O=C(Cc1cccc2ccccc12)N1CCC(CNCCCCNCC2CCCCN2)CC1` (stereo not given), the IC50 [1] was 1100 nM and the “Delta SBP” value (Rattus norvegicus) was 0 mmHg.

For `O=C(Cc1cccc2ccccc12)N1CCC(CNCCCCNCC2CCCNC2)CC1` (stereo not given), the IC50 [1] was 820 nM and the “Delta SBP” value (Rattus norvegicus) was -58 mmHg.

With `O=C(Cc1cccc2ccccc12)NCC(=O)N1CCC(CNCCCCNCC2CCNCC2)CC1` the IC50 [1] was 490 nM and the “Delta SBP” value (Rattus norvegicus) was -50 mmHg.

With `O=C(Cc1cccc2ccccc12)N1CCC(CNCCCCNCC2CCN(c3ccncc3)CC2)CC1` the IC50 [1] was 170 nM and the “Delta SBP” value (Rattus norvegicus) was -43 mmHg.

With `CN1CCCCC1CNCCCCNCC1CCN(C(=O)Cc2cccc3ccccc23)CC1` (stereo not given) the inhibition [2] was 27% and the “Delta SBP” value (Rattus norvegicus) was 11 mmHg.

In the case of `NCCCNCCCCNCC1CCN(C(=O)Cc2cccc3ccccc23)CC1`, the IC50 [1] is reported as 320 nM and the “Delta SBP” value (Rattus norvegicus) is reported as -35 mmHg.
